Source: patent US12558348B2, “Bioactive phytochemicals” (Phytoquest Limited, priority 2019, dated 2026)
Marks after values point to notes of the source that are not given here.

Key:
Type in all cases: cell-based
[1] = system: murine microglial cell line BV-2; experiment: Nitrite production by LPS-stimulated BV-2 microglial cells; conditions: 24 hours
Procedure: idoBR1 was used in cell cultures of murine microglial cell line BV-2 at 0, 20, 40 and 80 μg/ml plus and minus sub-optimal LPS. Production of TNF-α and nitrite was measured after 24 hours.

TNF-α = experiment: LPS-stimulated TNF-α production in human whole blood (ELISA); conditions: for TNF-α plasma + LPS: 48 h preincubation, LPS 10 μg/ml 20 h
Procedure: Blood and buffy coat fractions were supplied by the Scottish National Blood Transfusion Service (SNBTS), Glasgow, UK. Ficoll Histopaque (1.077 g/l), Lipopolysaccharide (from Salmonella abortus equi) was purchased from Sigma-Aldrich Co. Ltd. (UK). PGE was from Cayman Chemical Co. (Ann Arbor, MI). Human TNF-α antibody pairs for TNF-α ELISA assays was from Invitrogen/Life Sciences Europe. All drugs were dissolved in RPMI 1640 medium from Gibco BRL, UK.
Blood was used without any further treatment following donation. It was kindly supplied by the Scottish National Blood Transfusion Service from normal healthy donors as defined by ensuring they all tested negative for HIV, hepatitis B & C, CMV and parasitic diseases such as malaria (as tested by the National Blood Transfusion service). They were also confirmed by our laboratory to be free of acute inflammatory disease at the time the blood was taken by measuring the basal level of TNF-α which was always […].
Aliquots (800 μl) of whole blood were incubated with the compound dissolved in RPMI 1640, as indicated in the results, for the appropriate preincubation period after which LPS was added and incubations continued for a further 20 hr at 37° C. in a humidified (100%) atmosphere of 5% CO2 in air. At the end of the incubation period, supernatants from either plasma or culture medium were collected by centrifugation at 10,000 g for 30 seconds at room temperature and TNF-α levels measured using a human TNF-α ELISA system (BioSource Europe S.A., Belgium, supplied by Invitrogen).
(§1) Table showing the effect of various idoBR1 concentrations on LPS-stimulated TNF-α production in human blood. Whole blood was preincubated for 48 h with varying concentrations of idoBR1 after which LPS (10 μg/ml) was added and incubations continued for a further 20 h. Following incubation at 37° C. (5% CO2, 100% humidity) plasma was collected from blood by centrifugation and the levels of TNF-α In plasma samples were measured by ELISA.
as §1, with “various cucumber extract (0.09% idoBR1)” for “various idoBR1”, “of cucumber Q-Actin extract” for “of idoBR1”, “TNF-α in” for “TNF-α In”, “ELISA. Values represent the means±s.d. of n=3. * denotes P<0.05 compared to LPS alone.” for “ELISA.”

[2] = system: sialidase in human THP-1 (monocyte-like) cell cultures; experiment: Endogenous (lysosomal) sialidase activity in LPS-stimulated THP-1 cells; conditions: for RFU / Sialidase activity/mg protein: 2 hrs then 16 hours LPS; for Relative sialidase activity/mg protein: 16 hours LPS, relative to LPS control = 1.00
Procedure: The THP-1 cells were cultured in RPMI media supplemented with mercaptoethanol & glutamine to get 80% confluence in culture flask, then aspirated and centrifuged at 1500 rpm for 5 mins. The cell pellet was then resuspended in 1 ml of RPMI complete media and counted conventionally using a Hemocytometer. The cells (5×106) were incubated with PMA (10 ng/ml) in separate dishes to differentiate THP-1 cells. […] […] Post incubation, the cells were used to determine the sialidase activity.
The THP-1 cells were washed with phosphate-buffered saline (PBS) and resuspended in ice-cold buffer containing 0.25 M sucrose, 1 mM EDTA, and 0.2 mM phenylmethylsulfonyl fluoride. The cell suspension was sonicated on ice for 15 s on a low setting (6% amplitude) (Vibracell™; Sonics and Materials Inc., Newtown, CT) followed by centrifugation at 25,000 g for 15 min at 4° C. The resulting supernatant was used to determine the lysosomal sialidase activity. Protein quantification of the supernatant was performed using the Bio-Rad protein determination kit as described above. For the determination of lysosomal sialidase activity, 200 μg of total protein was mixed with 40 nmol of 4-methylumbelliferyl-α-N-acetyl-D-neuraminic acid (Sigma), the lysosomal sialidase-specific substrate, 10 μmol sodium acetate buffer, pH 4.6, and 200 μg of bovine serum albumin in a total volume of 200 μl. The sialidase reaction was allowed to proceed for 1 h at 37° C. and was terminated by the addition of 0.25 M glycine NaOH, pH 10.4. Released 4-methylumbelliferone was measured fluorometrically (Synergy 2 multimode microplate reader) at an excitation wavelength of 365 nm and emission wavelength of 448 nm.

O=C(O)[C@@H]1NC[C@H](O)[C@@H](O)[C@@H]1O [idoBR1, (2R,3R,4R,5S)-3,4,5-trihydroxypiperidine-2-carboxylic acid]
Nitrite production ([1]; 20 μg/ml + LPS): 11* μM | Nitrite production ([1]; 40 μg/ml + LPS): 9** μM | Nitrite production ([1]; 80 μg/ml + LPS): 8** μM | effective concentration on LPS-induced TNF-α in human blood (TNF-α): below 10 μM | TNF-α plasma + LPS (TNF-α; 0.01 μM): 1680 pg/mL | TNF-α plasma + LPS (TNF-α; 0.1 μM): 950* pg/ml | TNF-α plasma + LPS (TNF-α; 1 μM): 490* pg/ml | TNF-α plasma + LPS (TNF-α; 10 μM): 500* pg/ml | TNF-α plasma (no LPS) (TNF-α; 10 μM, no LPS): 200 pg/mL | IC50 (TNF-α; 48 hr preincubation, human blood): 182 nM | concentration with significant activity in human blood (TNF-α; second study, with pre-incubation): 0.01 µM | Sialidase activity/mg of protein ([2]; 12.5 μg/mL + LPS, 4 hours): 91.30 | Sialidase activity/mg of protein ([2]; 12.5 μg/mL + LPS, 8 hours): 129.95 | Sialidase activity/mg of protein ([2]; 12.5 μg/mL + LPS, 16 hours): 186.34 | Sialidase activity/mg of protein ([2]; 12.5 μg/mL + LPS, 24 hours): 108.47 | RFU ([2]; 12.5 μg/ml): 1610 RFU | Sialidase activity/mg protein ([2]; 12.5 μg/ml): 186.34 | Relative sialidase activity/mg protein ([2]; 12.5 μg/ml): 0.89 | Sialidase activity/mg of protein ([2]; 25 μg/mL + LPS, 4 hours): 86.48 | Sialidase activity/mg of protein ([2]; 25 μg/mL + LPS, 8 hours): 121.84 | Sialidase activity/mg of protein ([2]; 25 μg/mL + LPS, 16 hours): 178.24 | Sialidase activity/mg of protein ([2]; 25 μg/mL + LPS, 24 hours): 103.85 | RFU ([2]; 25 μg/ml): 1540 RFU | Sialidase activity/mg protein ([2]; 25 μg/ml): 178.24 | Relative sialidase activity/mg protein ([2]; 25 μg/ml): 0.86 | Sialidase activity/mg of protein ([2]; 50 μg/mL + LPS, 4 hours): 79.35 | Sialidase activity/mg of protein ([2]; 50 μg/mL + LPS, 8 hours): 109.77 | Sialidase activity/mg of protein ([2]; 50 μg/mL + LPS, 16 hours): 130.21 | Sialidase activity/mg of protein ([2]; 50 μg/mL + LPS, 24 hours): 88.83 | RFU ([2]; 50 μg/ml): 1125 RFU | Sialidase activity/mg protein ([2]; 50 μg/ml): 130.21 | Relative sialidase activity/mg protein ([2]; 50 μg/ml): 0.63 | Sialidase activity/mg of protein ([2]; 100 μg/mL + LPS, 4 hours): 72.15 | Sialidase activity/mg of protein ([2]; 100 μg/mL + LPS, 8 hours): 99.32 | Sialidase activity/mg of protein ([2]; 100 μg/mL + LPS, 16 hours): 115.16 | Sialidase activity/mg of protein ([2]; 100 μg/mL + LPS, 24 hours): 78.66 | RFU ([2]; 100 μg/ml): 995 RFU | Sialidase activity/mg protein ([2]; 100 μg/ml): 115.16 | Relative sialidase activity/mg protein ([2]; 100 μg/ml): 0.55
